Where a name gives a salt, the structure may show the parent alone.
Columns and labels:
[1] = molecular target: T1, enzyme MGL (monoacyl glycerol lipase) (Mus musculus, UniProt O35678); assay: radioenzymatic assay of MGL activity (hydrolysis of [3H]2-oleoylglycerol by mouse brain homogenate); assay type: biochemical; conditions: mouse brain homogenate (37.5 μg protein), 20 min preincubation, 50 μM 2-OG with [3H]2-OG, ambient temperature, read-out: IC50 (concentration which inhibits the control enzymatic activity of the MGL by 50%)
T1 construct: The source of enzyme MGL is a homogenate of mouse brain from which the cerebellum and the medulla oblongata have been removed; from tissue; host or cells: mouse brain homogenate (cerebellum and medulla oblongata removed)
T1 sequence (O35678 1-303): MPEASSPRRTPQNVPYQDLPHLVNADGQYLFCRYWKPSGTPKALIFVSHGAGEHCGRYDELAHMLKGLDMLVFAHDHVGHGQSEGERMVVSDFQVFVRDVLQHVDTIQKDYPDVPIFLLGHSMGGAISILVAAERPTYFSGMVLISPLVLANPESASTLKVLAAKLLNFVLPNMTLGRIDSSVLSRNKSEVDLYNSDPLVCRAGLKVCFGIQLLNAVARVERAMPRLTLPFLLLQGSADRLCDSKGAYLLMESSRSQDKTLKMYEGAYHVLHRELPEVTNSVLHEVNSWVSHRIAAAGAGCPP
Procedure: The inhibitory activity with respect to MGL is given by the concentration which inhibits 50% of the activity of MGL.
The inhibitory activity was measured in a radioenzymatic assay based on measuring the product of hydrolysis of 2-oleoylglycerol ([^3H]2-OG) by the enzyme MGL. The products of hydrolysis of [^3H]2-OG, labelled on the glycerol, are oleic acid and [^3H]glycerol. The source of enzyme MGL is a homogenate of mouse brain from which the cerebellum and the medulla oblongata have been removed. The mouse brains are removed and stored at −80° C. until they are used or homogenized immediately for 2 times 5 seconds using a Precellys device (Bertin) at 5000 rpm in a 10 mM Tris-HCl pH 8, 150 mM NaCl, 1 mM EDTA buffer at 4° C.
The dilution series of the compounds is prepared from stock solutions at 20 mM in 100% DMSO. The first dilution of this series is prepared in 100% DMSO and then the second is prepared in the enzymatic reaction buffer (50 mM phosphate, 0.1% BSA), resulting in the preparation of a 10-times concentrated concentration range. The test compounds are preincubated at the chosen concentration for 20 minutes with the mouse brain homogenate preparation.
Assaying of the MGL activity is carried out at ambient temperature in a 96-well microplate in a final reaction volume of 50 μl. […] After 20 minutes of preincubation with the test compounds, the proteins are incubated for 20 minutes in the presence of 50 μM of 2-OG comprising an amount of [^3H]2-OG of 0.027 μCi per well (specific activity of 20 Ci/mmol). The reaction is stopped by the addition of 50 μl per well of a charcoal suspension (6% of Sigma activated charcoal, reference C4386, in suspension in a 0.5M HCl, 1.5M NaCl solution). After stirring for 10 minutes, the [^3H]glycerol, not retained by the charcoal, is collected by filtration in a microplate comprising 100 μl of scintillant (OptiPhase Supermix, Perkin-Elmer) per well.

Compound | melting point | IC50 [1]
O=C(OC(C(F)(F)F)C(F)(F)F)N1CCC(Nc2ccc(C(F)(F)F)cn2)CC1 (as salt: hydrochloride) [Compound 65, 2,2,2-Trifluoro-1-(trifluoromethyl)ethyl 4-(5-(trifluoromethyl)pyridin-2-ylamino)piperidine-1-carboxylate hydrochloride (1:1)] | 225 to 235 °C (dec.) | 
N#Cc1ccc(C2CCN(C(=O)OC(C(F)(F)F)C(F)(F)F)CC2)cc1 [Compound 5, 2,2,2-Trifluoro-1-(trifluoromethyl)ethyl 4-(4-cyanophenyl)piperidine-1-carboxylate] | 54 to 56 °C | 
O=C(OC(C(F)(F)F)C(F)(F)F)N1CCC(c2noc3cc(F)ccc23)CC1 [Compound 10, 2,2,2-Trifluoro-1-(trifluoromethyl)ethyl 4-(6-fluorobenz[d]isoxazol-3-yl)piperidine-1-carboxylate] | 91 to 93 °C | 
O=C(OC(C(F)(F)F)C(F)(F)F)N1CCC(n2c(=O)[nH]c3cc(Cl)ccc32)CC1 [Compound 12, 2,2,2-Trifluoro-1-(trifluoromethyl)ethyl 4-(5-chloro-2-oxo-2,3-dihydrobenzimidazol-1-yl)piperidine-1-carboxylate] | 231 to 233 °C | 
O=C(OC(C(F)(F)F)C(F)(F)F)N1CCC(n2nnc3cc(C(F)(F)F)ccc32)CC1 [Compound 13, 2,2,2-Trifluoro-1-(trifluoromethyl)ethyl 4-(5-(trifluoromethyl)benzotriazol-1-yl)piperidine-1-carboxylate] |  | 6 nM
O=C(OC(C(F)(F)F)C(F)(F)F)N1CC[C@H](Oc2cccc(-c3ccc(F)cc3)c2)C1 [Compound 22, 2,2,2-Trifluoro-1-(trifluoromethyl)ethyl (S)-3-(4′-fluorobiphenyl-3-yloxy)pyrrolidine-1-carboxylate] | 72 to 73 °C | 
O=C(OC(C(F)(F)F)C(F)(F)F)N1CC[C@@H](Oc2cccc(-c3ccc(F)cc3)c2)C1 [Compound 23, 2,2,2-Trifluoro-1-(trifluoromethyl)ethyl (R)-3-(4′-fluorobiphenyl-3-yloxy)pyrrolidine-1-carboxylate] | 72 to 73 °C | 
N#Cc1cccc(-c2cccc(OC3CCN(C(=O)OC(C(F)(F)F)C(F)(F)F)CC3)c2)c1 [Compound 33, 2,2,2-Trifluoro-1-(trifluoromethyl)ethyl 4-(3′-cyanobiphenyl-3-yloxy)piperidine-1-carboxylate] | 80 to 82 °C | 0.6 nM
N#Cc1cccc(-c2nccc(NC3CCN(C(=O)OC(C(F)(F)F)C(F)(F)F)CC3)n2)c1 [Compound 70, 2,2,2-Trifluoro-1-(trifluoromethyl)ethyl 4-[2-(3-cyanophenyl)pyrimidin-4-ylamino]pipendine-1-carboxylate] | 151 to 153 °C | 5 nM
CC(C)(Oc1ccc(Cl)cc1)C(=O)NCC1CCN(C(=O)OC(C(F)(F)F)C(F)(F)F)CC1 [Compound 87, 2,2,2-Trifluoro-1-(trifluoromethyl)ethyl 4-{[2-(4-chlorophenoxy)-2-methylpropionylamino]-methyl}piperidine-1-carboxylate] | 77 to 78 °C | 

Results, then the molecule that gave them:

melting point | IC50 [1] | Compound
135 to 136 °C |  | O=C(OC(C(F)(F)F)C(F)(F)F)N1CCC(CNS(=O)(=O)c2cccc3ccccc23)C1 (stereo not drawn) [Compound 113, 2,2,2-Trifluoro-1-(trifluoromethyl)ethyl 3-[(naphthalene-1-sulphonylamino)methyl]-pyrrolidine-1-carboxylate]
204 to 206 °C |  | O=C(Nc1cccc(Cl)c1)NC1CCN(C(=O)OC(C(F)(F)F)C(F)(F)F)CC1 [Compound 166, 2,2,2-Trifluoro-1-(trifluoromethyl)ethyl 4-[3-(3-chlorophenyl)ureido]piperidine-1-carboxylate]
116 to 117 °C | 1.1 nM | O=C(NCCC1CN(C(=O)OC(C(F)(F)F)C(F)(F)F)C1)Nc1cccc(Cl)c1 [Compound 188, 2,2,2-Trifluoro-1-(trifluoromethyl)ethyl 3-{2-[3-(3-chlorophenyl)ureido]ethyl}azetidine-1-carboxylate]
101 to 102 °C |  | CN(C(=O)NCCC1CN(C(=O)OC(C(F)(F)F)C(F)(F)F)C1)c1ccccc1 [Compound 191, 2,2,2-Trifluoro-1-(trifluoromethyl)ethyl 3-[2-(3-methyl-3-phenylureido)ethyl]azetidine-1-carboxylate]
146 to 148 °C | 7 nM | O=C(OC(C(F)(F)F)C(F)(F)F)N1CCC(CNS(=O)(=O)c2cccc3nsnc23)CC1 [Compound 211, 2,2,2-Trifluoro-1-(trifluoromethyl)ethyl 4-[(benzo[1,2,5]thiadiazole-4-sulphonylamino)methyl]piperidine-1-carboxylate]
108 to 109 °C |  | O=C(OC(C(F)(F)F)C(F)(F)F)N1CC(C2(NS(=O)(=O)c3ccc(Cl)cc3)CC2)C1 [Compound 220, 2,2,2-Trifluoro-1-(trifluoromethyl)ethyl 3-[1-(4-chlorobenzenesulphonylamino)cyclopropyl]-azetidine-1-carboxylate]
98 to 118 °C |  | NC(=O)c1cnn(CC2CCN(C(=O)OC(C(F)(F)F)C(F)(F)F)CC2)c1 [Compound 231, 2,2,2-Trifluoro-1-(trifluoromethyl)ethyl 4-(4-carbamoylpyrazol-1-ylmethyl)piperidine-1-carboxylate]

Reference: US8835418B2, “Hexafluoroisopropyl carbamate derivatives, their preparation and their therapeutic application” (SANOFI, priority 2010, dated 2014)
